The record followed here is ChEMBL document CHEMBL1201862, “PubChem BioAssay data set” (2004).

Holding throughout (assay): NCI tumour cell line growth inhibition, 48 h
Test [1] relates to OVCAR-4.
Test [2] has as its system OVCAR-8.
For test [3], the system named is HOP-62.
Test [4] has as its system SK-MEL-5.
Test [5] deals with IGROV-1.
Test [6] relates to NCI-H522.
Test [7] has as its system NCI-H23.
Test [8] deals with ACHN.
Test [9] deals with NCI-H226.
Test [10] relates to HL-60.
Test [11] deals with KM12.
Test [12] has as its system CCRF-CEM.
Test [13] concerns RPMI-8226.
Test [14] relates to UO-31.
The subject of test [15] is SF-539.
Test [16] has as its system SNB-19.
The test system of test [17] is HCT-116.
Test [18] relates to MOLT-4.
Test [19] deals with K562.
Test [20] has as its system NCI/ADR-RES.

The structures appear in SMILES notation.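 Protocol summary: plate cells (96-well), add compound at 5 concentrations, incubate 48 h, interpolate endpoints linearly. GI50: concentration for 50% inhibition of growth.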 Active and inactive are the calls of the source. Rule as the data show it: active = GI50 up to about 1.1 µM and inactive = higher.

As to `O=C(/C=C/c1cc(Cl)cc(Cl)c1O)c1cccc(O)c1`, the GI50 in test [1] was 40.2 µM (inactive); in test [2], 32.1 µM (inactive); in [3], 74 µM (inactive); in test [4] it was 45.6 µM (inactive); in [5], 42.2 µM (inactive); in test [6] it was > 100 µM (inactive). In addition, the GI50 in [7] is 52 µM (inactive); in test [8], > 100 µM (inactive); in [9], 16.1 µM (inactive); in test [10] it was 29.1 µM (inactive); in test [11], 54 µM (inactive); in [12], 29.9 µM (inactive). Besides, the GI50 is 49.3 µM (inactive) in test [13]; 74.1 µM (inactive) in test [14]; 28.2 µM (inactive) in test [15]; 41.9 µM (inactive) in test [16]; 42.4 µM (inactive) in [17]; 20.4 µM (inactive) in test [18]. In addition, the GI50 in test [19] is 33.4 µM (inactive).
In the case of `O=c1oc2ccccc2n1CCN1CCCCC1`, the GI50 in test [2], in test [3], in test [4], in [5], in test [20] and in test [7] was > 100 µM (inactive) each time. The GI50 in test [8], in test [9], in test [10], in test [11], in test [12] and in test [13] was > 100 µM (inactive) throughout. Also, the GI50 in test [15], in test [16], in test [17], in test [18] and in test [19] was > 100 µM (inactive) each time.
As to `CC[C@]12C=CCN3CCC4(c5cc(/N=N/c6ccc([N+](=O)[O-])cc6)c(OC)cc5N(C)[C@H]4[C@@](O)(C(=O)OC)[C@@H]1OC(C)=O)[C@@H]32` (stereo not given in full), the GI50 in [1] is 9.59 µM (inactive); in test [2], 7.46 µM (inactive); in test [3], 13.6 µM (inactive); in [4] it was 12.4 µM (inactive); in test [5], 11.9 µM (inactive); in [20] it was 7.18 µM (inactive). The GI50 in test [7] is 10.5 µM (inactive); in [8], 15 µM (inactive); in [9], 5.5 µM (inactive); in test [10], 7.31 µM (inactive); in test [11], 14.3 µM (inactive); in test [12] it was 1.77 µM (inactive). Also, the GI50 in test [13] is 3.48 µM (inactive); in test [14], 11.2 µM (inactive); in test [15], 16.8 µM (inactive); in test [16], 26.6 µM (inactive); in test [17], 10.7 µM (inactive); in test [18], 3.01 µM (inactive). Moreover, in [19], the GI50 is 6.32 µM (inactive).
As for `ClCCN1CCC2(CC1)SSC1(CCN(CCCl)CC1)S2`, the GI50 in test [1] is 35.2 µM (inactive); in test [2], > 100 µM (inactive); in test [3], > 100 µM (inactive); in test [4], 42.4 µM (inactive); in test [5], 74 µM (inactive); in [20] it was 49.7 µM (inactive). Further, the GI50 in test [7] was 49.7 µM (inactive); in [8], 40.5 µM (inactive); in [10], 30.7 µM (inactive); in test [11], > 100 µM (inactive); in test [12], 15 µM (inactive); in test [13], 21.4 µM (inactive). Moreover, the GI50 in test [14] was 65.6 µM (inactive); in test [15] it was 20.6 µM (inactive); in test [16], 48 µM (inactive); in [17] it was 45.9 µM (inactive); in test [18], 41.5 µM (inactive); in test [19], 37.8 µM (inactive).
In the case of `O=C(c1ccc(Cl)cc1)C1OC12C(=O)Nc1ccccc12` (stereo not given), the GI50 is 19.1 µM (inactive) in [1]; 12.1 µM (inactive) in test [2]; 35.1 µM (inactive) in [3]; 12.1 µM (inactive) in test [4]; 19.8 µM (inactive) in [5]; 1.91 µM (inactive) in [6]. Moreover, the GI50 in test [7] is 15.5 µM (inactive); in [8], 15.1 µM (inactive); in test [9] it was 20.3 µM (inactive); in test [10] it was 0.349 µM (active); in test [11], 15.6 µM (inactive); in [12], 0.388 µM (active). Also, the GI50 in test [13] was 2.4 µM (inactive); in [14], 15.8 µM (inactive); in test [15], 16 µM (inactive); in test [16] it was 40.9 µM (inactive); in test [17], 3.61 µM (inactive); in test [18], 0.569 µM (active). In test [19], the GI50 was 0.658 µM (active).
For the compound `COc1ccc(C[C@@H](CO)NC2=C(C#N)CCC2)cc1`, the GI50 in test [1] is 32.1 µM (inactive); in test [2], 64.4 µM (inactive); in [3], 56.5 µM (inactive); in test [4], 34.9 µM (inactive); in test [20], 28.4 µM (inactive); in test [7], 52.4 µM (inactive). In addition, the GI50 in [8] was 49.9 µM (inactive); in test [9], 48.3 µM (inactive); in test [10], 11 µM (inactive); in test [11], 19.5 µM (inactive); in [12], 42.6 µM (inactive); in [13] it was 18.1 µM (inactive). Further, the GI50 in test [14] is 46 µM (inactive); in test [15] it was 26.3 µM (inactive); in test [16] it was > 100 µM (inactive); in [17] it was 38.5 µM (inactive); in test [18], 38.7 µM (inactive); in test [19], 33.4 µM (inactive).
On to `COc1ccc2c(=O)c3c([nH]c2c1)OCC3=O`, for which the GI50 in test [1], in [2], in [3], in [4], in test [5] and in test [20] was > 100 µM (inactive) in each case. Besides, the GI50 in test [7], in test [8], in [9], in [10], in [11] and in [12] was > 100 µM (inactive) throughout. Moreover, the GI50 in test [13], in [14], in test [15], in test [16], in [17] and in test [18] was > 100 µM (inactive) each time. For the same compound, in [19], the GI50 is 36.5 µM (inactive).
In the case of `Nc1ncnc2c1ncn2C1CCC(COS(N)(=O)=O)C1` (stereo not given), the GI50 in test [1], in [2], in test [3], in test [4], in [5] and in [20] was > 100 µM (inactive) in each case. In addition, the GI50 is > 100 µM (inactive) in test [7]; > 100 µM (inactive) in test [8]; > 100 µM (inactive) in test [9]; 31.1 µM (inactive) in test [10]; > 100 µM (inactive) in test [11]; > 100 µM (inactive) in test [12]. For the same compound, the GI50 in [13] was > 100 µM (inactive); in test [14], > 100 µM (inactive); in [15] it was 27 µM (inactive); in test [16] it was > 100 µM (inactive); in [17], 57.5 µM (inactive); in test [18], 46.9 µM (inactive). The GI50 in [19] is > 100 µM (inactive).
With `CC1CN=C(N(C(=O)Nc2ccc(F)c(Cl)c2)c2ccccc2)S1` (stereo not given), the GI50 in [1] is 48.3 µM (inactive); in test [2], 23.9 µM (inactive); in test [3] it was 27.6 µM (inactive); in test [4] it was 16.4 µM (inactive); in test [5], 27.8 µM (inactive); in test [20] it was 17.9 µM (inactive). The GI50 in test [7] is 19.2 µM (inactive); in test [8] it was 25.5 µM (inactive); in test [10] it was > 10 µM (inactive); in test [11], 26.5 µM (inactive); in [12] it was 31.3 µM (inactive); in test [13], 25.8 µM (inactive). Further, the GI50 in test [14] was 25.8 µM (inactive); in test [15], 41.1 µM (inactive); in test [16], 43.2 µM (inactive); in test [17], 21.5 µM (inactive); in test [18], 16.7 µM (inactive); in test [19] it was 27 µM (inactive).
Take `c1ccc([P+](CCNCCNCC[P+](c2ccccc2)(c2ccccc2)c2ccccc2)(c2ccccc2)c2ccccc2)cc1`: the GI50 in [1], in test [2], in test [3], in test [4], in test [5] and in test [20] was > 100 µM (inactive) throughout. Further, the GI50 in test [7], in [8], in test [9], in test [11], in test [13] and in [14] was > 100 µM (inactive) in each case. The GI50 in test [15], in [16], in test [17] and in [18] was > 100 µM (inactive) throughout.
Consider `Cc1cc(/N=N/c2ccccc2C)ccc1N`, for which the GI50 in test [1] is 19.4 µM (inactive); in test [2], 15.2 µM (inactive); in test [3], 5.6 µM (inactive); in test [4] it was 15.8 µM (inactive); in [5], 14.6 µM (inactive); in [20] it was 11.1 µM (inactive). The GI50 in [7] is 3.99 µM (inactive); in [8], 5.52 µM (inactive); in [9] it was 13.9 µM (inactive); in [10], 2.96 µM (inactive); in test [11] it was 10.6 µM (inactive); in test [12] it was 1.42 µM (inactive). The GI50 was 3.02 µM (inactive) in test [14]; 2.54 µM (inactive) in [15]; 31 µM (inactive) in test [16]; 15.5 µM (inactive) in [17]; 2.65 µM (inactive) in test [18]; 11.4 µM (inactive) in [19].
